{
  "source": "patent US11053204B2",
  "about": "“Pyrimidinyloxy benzene derivatives as herbicides” (FMC Corporation, priority 2015, dated 2021)",
  "type_in_all_cases": "in vivo",
  "key": {"[1]": {"tested_on": "barnyardgrass (Echinochloa crus-galli)", "assay": "Test A preemergence, visual injury rating", "settings": "0 to 100 scale (0 no effect, 100 complete control)", "procedure,_shortened": "(§1)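 Visual 0–100 rating (100 = complete control) taken about 10 d post-treatment relative to untreated checks. Preemergence: directed soil spray on sown loam/sand pots. Postemergence: seedlings 2–10 cm, 1–2 leaf. Non-phytotoxic solvent formulation with surfactant.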"}, "kochia (Kochia scoparia) [2]": {"tested_on": "kochia (Kochia scoparia)", "assay": "Test A preemergence, visual injury rating", "settings": "0 to 100 scale (0 no effect, 100 complete control)", "procedure,_shortened": "as §1"}, "[3]": {"tested_on": "blackgrass (Alopecurus myosuroides)", "assay": "Test C postemergence, plant response rating", "settings": "for Plant response rating, Blackgrass: scale 0 to 100; for Blackgrass plant response rating: scale 0 to 100 (0 no effect, 100 complete control)", "from_the_text": "(§2) Seeds of plant species selected from blackgrass (Alopecurus myosuroides), ryegrass, Italian (Italian ryegrass, Lolium multiflorum), wheat (winter wheat, Triticum aestivum), galium (catchweed bedstraw, Galium aparine), corn (Zea mays), crabgrass, large (large crabgrass, Digitaria sanguinalis), foxtail, giant (giant foxtail, Setaria faberii), johnsongrass (Sorghum halepense), lambsquarters (Chenopodium album), morningglory (Ipomoea coccinea), nutsedge, yellow (yellow nutsedge, Cyperus esculentus), pigweed (Amaranthus retroflexus), ragweed (common ragweed, Ambrosia elatior), soybean (Glycine max), barnyardgrass (Echinochloa crus-galli), oilseed rape (Brassica napus), pigweed, palmer (palmer pigweed, Amaranthus palmeri), waterhemp (common waterhemp, Amaranthus rudis), velvetleaf (Abutilon theophrasti), kochia (Kochia scoparia), surinam grass (Brachiaria decumbens), nightshade (eastern black nightshade, Solanum ptycanthum), wild poinsettia (Euphorbia heterophylla), windgrass (Apera spica-venti), and oat, wild (wild oat Avena fatua), were planted into a blend of loam soil and sand or a silt loam soil and treated preemergence with test chemicals formulated in a non-phytotoxic solvent mixture which included a surfactant.\n(§3) At the same time, plants selected from these crop and weed species and also chickweed (common chickweed, Stellaria media), buckwheat, wild (wild buckwheat, Polygonum convolvulus), wild mustard (Sinapis arvensis), field poppy (Papaver rhoeas), field violet (Viola arvensis), geranium, cutleaf (cutleaf geranium, Geranium dissectum), Canada thistle (Cirsium arvense), and speedwell (bird's-eye speedwell, Veronica persica), were planted in pots containing Sunshine Redi-Earth® planting medium comprising spaghnum peat moss, vermiculite, starter nutrients and dolomitic limestone and treated with postemergence applications of test chemicals formulated in the same manner. Plants ranged in height from 2 to 18 cm (1- to 4-leaf stage) for postemergence treatments. Treated plants and controls were maintained in a greenhouse for 13 to 15 d, after which time all species were compared to controls and visually evaluated. Plant response ratings, summarized in Table C, are based on a scale of 0 to 100 where 0 is no effect and 100 is complete control. A dash (-) response means no test result."}, "corn (Zea mays)": {"tested_on": "corn (Zea mays)", "assay": "Test C postemergence, plant response rating", "settings": "for Plant response rating, Corn: scale 0 to 100; for Corn plant response rating: scale 0 to 100 (0 no effect, 100 complete control)", "from_the_text": "as §2, §3"}, "[4]": {"tested_on": "lambsquarters (Chenopodium album)", "assay": "Test C postemergence, plant response rating", "settings": "for Plant response rating, Lambsquarters: scale 0 to 100; for Lambsquarters plant response rating: scale 0 to 100 (0 no effect, 100 complete control)", "from_the_text": "as §2, §3"}, "[5]": {"tested_on": "foxtail, giant (giant foxtail, Setaria faberii)", "assay": "Test C postemergence, plant response rating", "settings": "for Plant response rating, Foxtail, Giant: scale 0 to 100; for Foxtail, Giant plant response rating: scale 0 to 100 (0 no effect, 100 complete control)", "from_the_text": "as §2, §3"}, "[6]": {"tested_on": "oilseed rape (Brassica napus)", "assay": "Test C postemergence, plant response rating", "settings": "for Plant response rating, Oilseed Rape: scale 0 to 100; for Oilseed Rape plant response rating: scale 0 to 100 (0 no effect, 100 complete control)", "from_the_text": "as §2, §3"}, "[7]": {"tested_on": "nutsedge, yellow (yellow nutsedge, Cyperus esculentus)", "assay": "Test C postemergence, plant response rating", "settings": "for Plant response rating, Nutsedge, Yellow: scale 0 to 100; for Nutsedge, Yellow plant response rating: scale 0 to 100 (0 no effect, 100 complete control)", "from_the_text": "as §2, §3"}, "[8]": {"tested_on": "chickweed (common chickweed, Stellaria media)", "assay": "Test C postemergence, plant response rating", "settings": "for Plant response rating, Chickweed: scale 0 to 100; for Chickweed plant response rating: scale 0 to 100 (0 no effect, 100 complete control)", "from_the_text": "as §2, §3"}, "[9]": {"tested_on": "morningglory (Ipomoea coccinea)", "assay": "Test C postemergence, plant response rating", "settings": "for Plant response rating, Morningglory: scale 0 to 100; for Morningglory plant response rating: scale 0 to 100 (0 no effect, 100 complete control)", "from_the_text": "as §2, §3"}, "[10]": {"tested_on": "wheat (winter wheat, Triticum aestivum)", "assay": "Test C postemergence, plant response rating", "settings": "for Plant response rating, Wheat: scale 0 to 100; for Wheat plant response rating: scale 0 to 100 (0 no effect, 100 complete control)", "from_the_text": "as §2, §3"}, "[11]": {"tested_on": "crabgrass, large (large crabgrass, Digitaria sanguinalis)", "assay": "Test C postemergence, plant response rating", "settings": "for Plant response rating, Crabgrass, Large: scale 0 to 100; for Crabgrass, Large plant response rating: scale 0 to 100 (0 no effect, 100 complete control)", "from_the_text": "as §2, §3"}, "[12]": {"tested_on": "ryegrass, Italian (Italian ryegrass, Lolium multiflorum)", "assay": "Test C postemergence, plant response rating", "settings": "for Plant response rating, Ryegrass, Italian: scale 0 to 100; for Ryegrass, Italian plant response rating: scale 0 to 100 (0 no effect, 100 complete control)", "from_the_text": "as §2, §3"}, "soybean (Glycine max)": {"tested_on": "soybean (Glycine max)", "assay": "Test C postemergence, plant response rating", "settings": "for Plant response rating, Soybean: scale 0 to 100; for Soybean plant response rating: scale 0 to 100 (0 no effect, 100 complete control)", "from_the_text": "as §2, §3"}, "kochia (Kochia scoparia) [13]": {"tested_on": "kochia (Kochia scoparia)", "assay": "Test C postemergence, plant response rating", "settings": "for Plant response rating, Kochia: scale 0 to 100; for Kochia plant response rating: scale 0 to 100 (0 no effect, 100 complete control)", "from_the_text": "as §2, §3"}, "[14]": {"tested_on": "oat, wild (wild oat Avena fatua)", "assay": "Test C postemergence, plant response rating", "settings": "for Plant response rating, Oat, Wild: scale 0 to 100; for Oat, Wild plant response rating: scale 0 to 100 (0 no effect, 100 complete control)", "from_the_text": "as §2, §3"}},
  "data": [
    {"smiles": "CCCC(=O)c1c(Br)cccc1Oc1ncc(Cl)cn1", "note": "[Compound 75]", "values": [
      {"measurement": "Barnyardgrass plant response rating", "setting": "[1]; 125 g ai/ha", "value": 100},
      {"measurement": "Barnyardgrass plant response rating", "setting": "[1]; 500 g ai/ha", "value": 100},
      {"measurement": "Kochia plant response rating", "setting": "kochia (Kochia scoparia) [2]; 125 g ai/ha", "value": 80},
      {"measurement": "Kochia plant response rating", "setting": "kochia (Kochia scoparia) [2]; 500 g ai/ha", "value": 100},
      {"measurement": "Plant response rating, Blackgrass", "setting": "[3]; 16 g ai/ha", "value": 0},
      {"measurement": "Plant response rating, Blackgrass", "setting": "[3]; 31 g ai/ha", "value": 5},
      {"measurement": "Blackgrass plant response rating", "setting": "[3]; 62 g ai/ha", "value": 10},
      {"measurement": "Blackgrass plant response rating", "setting": "[3]; 125 g ai/ha", "value": 30},
      {"measurement": "Plant response rating, Corn", "setting": "corn (Zea mays); 16 g ai/ha", "value": 10},
      {"measurement": "Plant response rating, Corn", "setting": "corn (Zea mays); 31 g ai/ha", "value": 15},
      {"measurement": "Corn plant response rating", "setting": "corn (Zea mays); 62 g ai/ha", "value": 15},
      {"measurement": "Corn plant response rating", "setting": "corn (Zea mays); 125 g ai/ha", "value": 20},
      {"measurement": "Plant response rating, Lambsquarters", "setting": "[4]; 16 g ai/ha", "value": 50},
      {"measurement": "Plant response rating, Lambsquarters", "setting": "[4]; 31 g ai/ha", "value": 55},
      {"measurement": "Lambsquarters plant response rating", "setting": "[4]; 62 g ai/ha", "value": 70},
      {"measurement": "Lambsquarters plant response rating", "setting": "[4]; 125 g ai/ha", "value": 90},
      {"measurement": "Plant response rating, Foxtail, Giant", "setting": "[5]; 16 g ai/ha", "value": 10},
      {"measurement": "Plant response rating, Foxtail, Giant", "setting": "[5]; 31 g ai/ha", "value": 10},
      {"measurement": "Foxtail, Giant plant response rating", "setting": "[5]; 62 g ai/ha", "value": 10},
      {"measurement": "Foxtail, Giant plant response rating", "setting": "[5]; 125 g ai/ha", "value": 25},
      {"measurement": "Plant response rating, Oilseed Rape", "setting": "[6]; 16 g ai/ha", "value": 60},
      {"measurement": "Plant response rating, Oilseed Rape", "setting": "[6]; 31 g ai/ha", "value": 80},
      {"measurement": "Oilseed Rape plant response rating", "setting": "[6]; 62 g ai/ha", "value": 80},
      {"measurement": "Oilseed Rape plant response rating", "setting": "[6]; 125 g ai/ha", "value": 95},
      {"measurement": "Plant response rating, Nutsedge, Yellow", "setting": "[7]; 16 g ai/ha", "value": 0},
      {"measurement": "Plant response rating, Nutsedge, Yellow", "setting": "[7]; 31 g ai/ha", "value": 0},
      {"measurement": "Nutsedge, Yellow plant response rating", "setting": "[7]; 62 g ai/ha", "value": 0},
      {"measurement": "Nutsedge, Yellow plant response rating", "setting": "[7]; 125 g ai/ha", "value": 5},
      {"measurement": "Plant response rating, Chickweed", "setting": "[8]; 16 g ai/ha", "value": 60},
      {"measurement": "Plant response rating, Chickweed", "setting": "[8]; 31 g ai/ha", "value": 85},
      {"measurement": "Chickweed plant response rating", "setting": "[8]; 62 g ai/ha", "value": 90},
      {"measurement": "Chickweed plant response rating", "setting": "[8]; 125 g ai/ha", "value": 98},
      {"measurement": "Plant response rating, Morningglory", "setting": "[9]; 16 g ai/ha", "value": 5},
      {"measurement": "Plant response rating, Morningglory", "setting": "[9]; 31 g ai/ha", "value": 15},
      {"measurement": "Morningglory plant response rating", "setting": "[9]; 62 g ai/ha", "value": 20},
      {"measurement": "Morningglory plant response rating", "setting": "[9]; 125 g ai/ha", "value": 65},
      {"measurement": "Plant response rating, Wheat", "setting": "[10]; 16 g ai/ha", "value": 0},
      {"measurement": "Plant response rating, Wheat", "setting": "[10]; 31 g ai/ha", "value": 5},
      {"measurement": "Wheat plant response rating", "setting": "[10]; 62 g ai/ha", "value": 0},
      {"measurement": "Wheat plant response rating", "setting": "[10]; 125 g ai/ha", "value": 10},
      {"measurement": "Plant response rating, Crabgrass, Large", "setting": "[11]; 16 g ai/ha", "value": 10},
      {"measurement": "Plant response rating, Crabgrass, Large", "setting": "[11]; 31 g ai/ha", "value": 10},
      {"measurement": "Crabgrass, Large plant response rating", "setting": "[11]; 62 g ai/ha", "value": 15},
      {"measurement": "Crabgrass, Large plant response rating", "setting": "[11]; 125 g ai/ha", "value": 25},
      {"measurement": "Plant response rating, Ryegrass, Italian", "setting": "[12]; 16 g ai/ha", "value": 0},
      {"measurement": "Plant response rating, Ryegrass, Italian", "setting": "[12]; 31 g ai/ha", "value": 10},
      {"measurement": "Ryegrass, Italian plant response rating", "setting": "[12]; 62 g ai/ha", "value": 10},
      {"measurement": "Ryegrass, Italian plant response rating", "setting": "[12]; 125 g ai/ha", "value": 5},
      {"measurement": "Plant response rating, Soybean", "setting": "soybean (Glycine max); 16 g ai/ha", "value": 50},
      {"measurement": "Plant response rating, Soybean", "setting": "soybean (Glycine max); 31 g ai/ha", "value": 65},
      {"measurement": "Soybean plant response rating", "setting": "soybean (Glycine max); 62 g ai/ha", "value": 85},
      {"measurement": "Soybean plant response rating", "setting": "soybean (Glycine max); 125 g ai/ha", "value": 85},
      {"measurement": "Plant response rating, Kochia", "setting": "kochia (Kochia scoparia) [13]; 16 g ai/ha", "value": 75},
      {"measurement": "Plant response rating, Kochia", "setting": "kochia (Kochia scoparia) [13]; 31 g ai/ha", "value": 85},
      {"measurement": "Kochia plant response rating", "setting": "kochia (Kochia scoparia) [13]; 62 g ai/ha", "value": 90},
      {"measurement": "Kochia plant response rating", "setting": "kochia (Kochia scoparia) [13]; 125 g ai/ha", "value": 98},
      {"measurement": "Plant response rating, Oat, Wild", "setting": "[14]; 16 g ai/ha", "value": 5},
      {"measurement": "Plant response rating, Oat, Wild", "setting": "[14]; 31 g ai/ha", "value": 35},
      {"measurement": "Oat, Wild plant response rating", "setting": "[14]; 62 g ai/ha", "value": 40},
      {"measurement": "Oat, Wild plant response rating", "setting": "[14]; 125 g ai/ha", "value": 35}
    ]}
  ]
}
